Each block holds one compound with its values, some of them ahead of it.
Tests used:
[1] = Reaction kinetics measurement: second-order rate constants of tetrazines with TCO (stopped-flow photometer, pseudo-first-order); format: physicochemical; settings: Second order rate constants with TCO at 37 °C in PBS
Description: Reaction kinetics of tetrazines with standard TCO were determined using pseudo-first-order measurements with an excess of the TCO compound in PBS (pH = 7.4) at 37.0 ± 0.1 °C following the decrease of tetrazine absorbance at 535 nm. Measurements were performed in triplicates using an SX20 stopped-flow photometer (Applied Photophysics, UK) equipped with a 535 nm LED light source. Data analysis was performed using Prism 6 (Graphpad) to determine the observed rate constants which were converted into secondorder rate constants through dividing by the TCO concentration.
Second-order rate constants for the reaction with TCO in PBS at 37 °C were determined by pseudo-first order measurements in a SX20 stopped flow photometer (Applied Photophysics).

[2] = Bench stability by analytical HPLC; format: physicochemical
Source text: The stability of [^18F]13 and it precursor (28) was investigated by analytical HPLC.

[3] = test system: CC49-TCO; assay: Pretargeted PET/CT imaging in LS174T tumor xenograft bearing mice; format: in vivo, Balb/c nude mice
Description: The ability of [^18F]13 to be used as a pretargeting imaging agent was evaluated using a similar pretargeted setup that was used for the ex vivo blocking study in example 7. Mice were administered with CC49-TCO 72 h prior to administration of [^18F]13 where after PET/CT scanning was performed 1 h later. Control animals were injected with unconjugated mAb CC49 instead of CC49-TCO, but were otherwise treated exactly the same. After PET/CT scanning, animals were euthanized and an ex vivo biodistribution performed. […] The tumor uptake was clearly visible. A tumor-to-muscle (T/M) ratio of 20.1 and a tumor-to-blood (T/B) ratio of 1.2 from the image derived data (heart uptake used as surrogate for blood uptake) was determined. The relatively low T/B ratio is likely due to ligation of [^18F]13 with remnant CC49-TCO still circulating in the blood. Clearance of CC49-TCO from blood will most likely increase the ratio drastically. Uptake in tissues beside tumor and blood was low. […]
Pretargeted imaging of [^18F]13 as tested in vivo using the TAG-72 targeting antibody CC49 in human colorectal cancer xenograft tumors LS174T. […] The radioactivity in the tissues were determined using a gamma counter (Wizard^2, Perkin Elmer). Data was corrected for decay, tissue weight and the injected dose of radioactivity. […] Statistical difference between mean %ID/g values were analyzed using Welch's T-test. […]

[4] = Tetrazine core reactivity test with TCO-PNP (analytical HPLC); format: physicochemical; settings: after 4 hours at r.t.
Description: The reaction between [^18F]13 TCO-PNP was performed by mixing the formulated [^18F]13 (200 µL) with 5 µL of the commercially available TCO-PNP ester dissolved in DMF (5 mg/mL) in an analytical HPLC vial. […]

SMILES: O=C(O)C(F)(F)F.O=C(O)CN(CCF)Cc1cc(F)cc(-c2nncnn2)c1 [Compound 9, N-(carboxymethyl)-2-fluoro-N-(3-fluoro-5-(1,2,4,5-tetrazin-3-yl)benzyl)ethanaminium 2,2,2-trifluoroacetate]
Rate constant [1]: 87722 M⁻¹ s⁻¹

SMILES: O=C(O)C(F)(F)F.O=C(O)CN(CCF)Cc1cccc(-c2nncnn2)c1 [Compound 10, N-(3-(1,2,4,5-tetrazin-3-yl)benzyl)-N-(carboxymethyl)-2-fluoroethanaminium 2,2,2-trifluoroacetate]
Rate constant [1]: 62464 M⁻¹ s⁻¹

SMILES: O=C(O)C(F)(F)F.O=C(O)CN(CCF)Cc1ccc(-c2nncnn2)cc1F [Compound 11, N-(carboxymethyl)-2-fluoro-N-(2-fluoro-4-(1,2,4,5-tetrazin-3-yl)benzyl)ethanaminium 2,2,2-trifluoroacetate]
Rate constant [1]: 74592 M⁻¹ s⁻¹

SMILES: O=C(O)C(F)(F)F.O=C(O)CN(CCF)Cc1ccc(-c2nncnn2)cc1 [Compound 12, N-(4-(1,2,4,5-tetrazin-3-yl)benzyl)-N-(carboxymethyl)-2-fluoroethanaminium 2,2,2-trifluoroacetate]
Rate constant [1]: 54999 M⁻¹ s⁻¹

SMILES: O=C(O)C(F)(F)F.O=C(O)CN(CC(=O)O)Cc1ccc(-c2nncnn2)cc1OCCF [Compound 13, 1-Carboxy-N-(carboxymethyl)-N-(2-(2-fluoroethoxy)-4-(1,2,4,5-tetrazin-3-yl)benzyl) methanaminium 2,2,2-trifluoroacetate]
Rate constant [1]: 68478 M⁻¹ s⁻¹

stability of the precursor ([2]; bench stability, analytical HPLC): decomposed over time
stability of the precursor (time stable) ([2]; dissolved (25 mg/mL) in DMSO and frozen at -20 °C): at least 3 months
stability of the precursor (time stable) ([2]; stored at -20 °C as a solid): ≥ 3 months
SMILES: CC(C)(C)OC(=O)CN(CC(=O)OC(C)(C)C)Cc1ccc(-c2nncnn2)cc1OCCOS(=O)(=O)c1ccc([N+](=O)[O-])cc1 [Compound 28, Di-tert-butyl 2,2'-((2-(2-(((4-nitrophenyl)sulfonyl)oxy)ethoxy)-4-(1,2,4,5-tetrazin-3-yl)benzyl)azanediyl)diacetate]

SMILES: O=C(O)CN(CC(=O)O)Cc1ccc(-c2nncnn2)cc1OCC[18F] [[^18F]13]
tumor-to-muscle ratio in comparison with [64Cu]Cu-NOTa-PEG7-H-Tz, [111In]Tz-Tg and ZZ ([3]; PET imaging, Figure 6): highest tumor-to-musle ratio
Uptake in tissues beside tumor and blood ([3]; PET/CT 1 h p.i., CC49-TCO pretargeted): low
Stability at r.t. over 4 hours ([2]; after 4 hours, Figure 5A): no signs of decomposition
stability (time stable) ([2]; analytical HPLC, r.t.): at least 4 hours
ability to react with TCO-PNP [4]: still able to react quantitatively with TCO-PNP
